Measured values published in patent US4950686A, “Anti-mycoplasma agent” (Shionogi & Co., Ltd., priority 1986, dated 1990).
Values after ≈ are worked out from the molar mass of the structure shown. Structures can show the parent of a compound that is named as a salt. Where two headings read alike, the source gives them in different places.

How the values were obtained:
[1] = tested on: Mycoplasma gallisepticum S6 (standard strain); test: Anti-mycoplasma activity in vitro (MIC, broth dilution), strain S6; format: cell-based; details: Mg S6, 37° C., 7 days
Method: (§1) (1) Anti-mycoplasma activity test in vitro
(§2) MIC values of each of Tropolones were measured on the following strains according to the following method.
(§3) (a) Mycoplasma gallisepticum
(§4) Medium: Chick PPLO broth supplemented with 20% equine serum (Eiken Kagaku Co., Ltd.)
(§5) Method: Broth dilution method
(§6) Inoculum: Culture incubated at 37° C. for 24-48 hr which is diluted with broth to 10^6 CCU/ml immediately before the use.
(§7) To 1.6 ml of the broth is added 0.2 ml of an agent which has been subjected to 2-fold dilution and then added 0.2 ml of inoculum, which is incubated at 37° C. for 7 days.

[2] = tested on: Mycoplasma gallisepticum T-7-T (wild strain, tylosin-resistant); test: Anti-mycoplasma activity in vitro (MIC, broth dilution), strain T-7-T; format: cell-based; details: Mg T-7-T, 37° C., 7 days
Method: as §1, §2, §3
T-7-T (wild strain, tylosin-resistant)
as §4, §5, §6, §7

[3] = tested on: Mycoplasma gallisepticum MR-1 (wild strain, tylosin-resistant); test: Anti-mycoplasma activity in vitro (MIC, broth dilution), strain MR-1; format: cell-based; details: Mg MR-1, 37° C., 7 days
Method: as §1, §2, §3
MR-1 (wild strain, tylosin-resistant)
as §4, §5, §6, §7

[4] = tested on: Mycoplasma hyopneumoniae ST-11 (standard strain); test: Anti-mycoplasma activity in vitro (MIC, broth dilution), strain ST-11; format: cell-based; details: Mh ST-11
Method: as §1, §2
(b) Mycoplasma hyopneumoniae
Strain: ST-11 (standard strain)
Medium: 850 ml of Hanks' solution supplemented with 0.5% lactoalbumin, 50 ml of 25% yeast, 100 ml of equine serum and 4-6 ml of 0.5% phenol red (pH 7.4-7.6)
as §5
Inoculum: Culture which is incubated for 3-4 days and diluted 10 times with the broth if color of the broth becomes yellow then. If it needs over 4 days until color of the broth becomes yellow, it is further subcultured. This is diluted 10 times with the broth to give inoculum.
Assay is done in the same manner as in the above (a).

[5] = tested on: Mycoplasma gallisepticum S6 (standard strain); test: Mycoplasma gallisepticum air-sac infection method in chicken, strain S6; format: in vivo, Mycoplasma gallisepticum; SPF chicken (white leghorn); details: 200 mg/kg × once oral, 20 mg/ml sol. c; for Index of Isolation: inoculum 6.3 × 10^4, trachea ND, range 0-6.0
Method: (2) Test of Effectiveness Mycoplasma gallisepticum air-sac infection method
Inoculation: To the right air-sac of 9 days old SPF chicken (a white leghorn) which has abstained from water and feed one day before is inoculated 0.20-0.25 ml/chicken of fresh mycoplasma culture incubated for 24-48 hr and diluted with broth (usually 100 times). The concentration in Table 2 is shown in a unit of mg/ml.
Medium: Chick PPLO broth supplemented with 15% equine serum (Eiken Kagaku Co., Ltd.)
Administration: A compound of this invention dissolved or suspended in the following solution is orally and forcibly administered once by a cannula immediately after the infection.
Anatomization and Isolation of Microorganism: The chickens are anatomized 5 days after the infection, and the right and left air sacs are investigated whether they are attacked with a disease or not. The change caused by the disease is represented in four degrees; -: no change, +: slight, ++: medium and +++: serious. Microorganism is isolated from the right and left air-sacs and the trachea by using a sterilized applicator.
Judgement: Judgement is done through an index of an air-sac disease and an index of a microorganism-isolation.
Index of an air-sac-disease: First, indexes in the right and left air-sacs are separately calculated according to the following formula;
{degree of disease (0-3)×chickens}/anatomized chickens
and the index is calculated by the following formula;
(index of right air-sac)×1+(index of left air-sac)×2
Index of a microorganism isolation:
P: chickens from the right air-sac of which microorganism is isolated,
Q: chickens from the trachea of which microorganism is isolated,
R: chickens from the left air-sac of which microorganism is isolated, and
S: chickens investigated.

[6] = inoculum 6.3 × 10^4, calcium salt
[7] = Mycoplasmoides gallisepticum, 168 h, read-out: MIC

`O=c1cccccc1O.O=c1cccccc1O.[Cu]` [Compound 2, Tropolone copper complex] showed an MIC [1] of 3.13 µg/mL, an MIC [2] of 3.13 µg/mL and an MIC [3] of 3.13 µg/mL. For the same compound, the MIC [4] was 0.78 µg/mL.

`O=c1cccccc1[O-].O=c1cccccc1[O-].[Ni+2]` [Compound 4, Tropolone nickel complex] gave an MIC [1] of 1.56 µg/mL, an MIC [2] of 3.13 µg/mL and an MIC [3] of 3.13 µg/mL. The MIC [4] was 0.78 µg/mL.

With `O=c1cccccc1O` [Compound 5, Tropolone calcium salt] the MIC ([1]; calcium salt) was 3.13 µg/mL, the MIC ([3]; calcium salt) was 1.56 µg/mL and the “Change of air-sac, left: + (chickens)” value ([5]; inoculum 6.3 × 10^4) was 0. For the same compound, the “Change of air-sac, left: ++ (chickens)” value ([5]; inoculum 6.3 × 10^4) was 0, the “Change of air-sac, left: +++ (chickens)” value ([5]; inoculum 6.3 × 10^4) was 0 and the “Change of air-sac, left: - (chickens)” value ([5]; inoculum 6.3 × 10^4) was 5. For the same compound, the “Change of air-sac, right: ++ (chickens)” value ([5]; inoculum 6.3 × 10^4) was 0, the “Change of air-sac, right: +++ (chickens)” value ([5]; inoculum 6.3 × 10^4) was 0 and the “Isolation, L (left air-sac)” value ([5]; inoculum 6.3 × 10^4) was 0. The “Isolation, R (right air-sac)” value ([5]; inoculum 6.3 × 10^4) was 1, the “Mycoplasma Isolated Chickens” value ([5]; inoculum 6.3 × 10^4) was 1 and the “Change of air-sac, right: + (chickens)” value [5, 6] was 0. The “Change of air-sac, right: - (chickens)” value [5, 6] was 5, the “Index of Disease” value ([5]; inoculum 6.3 × 10^4, range 0-9.0, calcium salt) was 0 and the “Index of Isolation” value [5] was 0.2.

`O=c1cccccc1O` [Compound 6, Tropolone magnesium salt] was tested, and the MIC [1] was 1.56 µg/mL, the MIC [2] was 1.56 µg/mL and the MIC [3] was 1.56 µg/mL. The MIC [4] was 0.78 µg/mL.

In the case of `O=c1cccccc1O` [Compound 8, Tropolone sodium salt], the MIC ([1]; sodium salt) is reported as 1.56 µg/mL, the MIC ([2]; sodium salt) is reported as 1.56 µg/mL and the MIC ([3]; sodium salt) is reported as 1.56 µg/mL. It also gave an MIC ([4]; sodium salt) of 0.78 µg/mL.

In the case of `O=c1cccccc1O` [Compound 9, Tropolone ethanolamine salt], the MIC [1] is reported as 3.13 µg/mL, the MIC [3] is reported as 3.13 µg/mL and the “Change of air-sac, left: + (chickens)” value ([5]; inoculum 6.3 × 10^4) is reported as 0. The “Change of air-sac, left: ++ (chickens)” value ([5]; inoculum 6.3 × 10^4) was 0, the “Change of air-sac, left: +++ (chickens)” value ([5]; inoculum 6.3 × 10^4) was 0 and the “Change of air-sac, left: - (chickens)” value ([5]; inoculum 6.3 × 10^4) was 5. For the same compound, the “Change of air-sac, right: + (chickens)” value ([5]; inoculum 6.3 × 10^4) was 1, the “Change of air-sac, right: ++ (chickens)” value ([5]; inoculum 6.3 × 10^4) was 0 and the “Change of air-sac, right: +++ (chickens)” value ([5]; inoculum 6.3 × 10^4) was 0. The “Change of air-sac, right: - (chickens)” value ([5]; inoculum 6.3 × 10^4) was 4, the “Isolation, L (left air-sac)” value ([5]; inoculum 6.3 × 10^4) was 0 and the “Isolation, R (right air-sac)” value ([5]; inoculum 6.3 × 10^4) was 1. The “Mycoplasma Isolated Chickens” value ([5]; inoculum 6.3 × 10^4) was 1, the “Index of Disease” value ([5]; inoculum 6.3 × 10^4, range 0-9.0) was 0.2 and the “Index of Isolation” value [5] was 0.2.

Work on `O=c1cccccc1O` [Compound 10, Tropolone n-propylamine salt] yielded an MIC [1] of 3.13 µg/mL, an MIC [2] of 3.13 µg/mL and an MIC [3] of 3.13 µg/mL. The MIC [4] was 0.78 µg/mL.

`O=C(Oc1cccccc1=O)c1ccccc1` [Compound 14, O-Benzoyltropolone] showed an MIC [1, 7] of 6.25 µg/mL (≈ 27.6 µM), an MIC [2, 7] of 6.25 µg/mL (≈ 27.6 µM) and an MIC [3, 7] of 6.25 µg/mL (≈ 27.6 µM). It also gave an MIC ([4]; Mesomycoplasma hyopneumoniae, read-out: MIC) of 0.78 µg/mL (≈ 3.45 µM).
